Class and IC50 data for 35 molecules are collected here from patent US20070010671A1, “Novel quinazoline derivatives and methods of treatment related to the use thereof” (priority 2003, published 2007).

Some results are limits rather than exact numbers.

For the first assay, the target named is MCH receptor (Homo sapiens, UniProt Q99705). Description: High throughput functional screening FLIPR/FDSS6000: inhibition of MCH-evoked intracellular Ca2+ changes. The format is cell-based. The settings on record: class by percent of control at 10^-7 M or IC50. The essentials:
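Cells expressing a non-endogenous, constitutively active MCH receptor were loaded with 4 μM Fluo4-AM (with probenecid) for 1 hr at 37° C. Test compound was preincubated 3 min at 37° C before 50 nM MCH was added. The [Ca2+]i transient was read at Ex 488/Em 530 nm for 290 s.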
With `CN(C)c1nc(N[C@H]2CC[C@@H](CNC(=O)Nc3cc(Cl)cc(Cl)c3)CC2)nc2ccccc12` [compound 424, N-(3,5-dichlorophenyl)-N′-[(cis-4-{[4-(dimethylamino)quinazolin-2-yl]amino}cyclohexyl)methyl]urea], the class is listed as 1 (Class 1: The value of percent of control at 10^−7 M was less than 40% or the value of IC50 was less than 50 nM.). `C[C@@H](NC(=S)NC[C@H]1CC[C@@H](Nc2nc(N(C)C)c3ccccc3n2)CC1)c1ccccc1` [compound 749]: the class was 3 (Class 3: The value of percent of control at 10^−7 M was more than 60% or the value of IC50 was more than 200 nM.). Same read-out and setting: the value for `CN(C)c1nc(N[C@H]2CC[C@@H](NC(=S)Nc3ccc(Cl)c([N+](=O)[O-])c3)CC2)nc2ccccc12` [compound 270] was 3 (Class 3: The value of percent of control at 10^−7 M was more than 60% or the value of IC50 was more than 200 nM.); that for “N-[(cis-4-{[4-(dimethylamino)quinazolin-2-yl]amino}cyclohexyl)methyl]-N′-(2,4,6-tribromophenyl)urea [compound 475]” was 1 (Class 1: The value of percent of control at 10^−7 M was less than 40% or the value of IC50 was less than 50 nM.). Same read-out and setting: the value for `Cc1cc(Br)ccc1NC(=O)NC[C@H]1CC[C@@H](Nc2nc(N(C)C)c3ccccc3n2)CC1` [compound 754] was 2 (Class 2: The value of percent of control at 10^−7 M was from 40% to 60% or the value of IC50 was from 50 nM to 200 nM.).

Turning to `CN(C)c1nc(N[C@H]2CC[C@@H](CNC(=O)Nc3ccc(OCc4ccccc4)cc3)CC2)nc2ccccc12` [compound 539], the class is reported as 3 (Class 3: The value of percent of control at 10^−7 M was more than 60% or the value of IC50 was more than 200 nM.). In the case of `COc1cc(NC(=S)NC[C@H]2CC[C@@H](Nc3nc(N(C)C)c4ccccc4n3)CC2)cc(OC)c1` [compound 683], the class is on record as 3 (Class 3: The value of percent of control at 10^−7 M was more than 60% or the value of IC50 was more than 200 nM.). Regarding `CN(C)c1nc(N[C@H]2CC[C@@H](NC(=S)Nc3cccc(I)c3)CC2)nc2ccccc12` [compound 227], the class is 2 (Class 2: The value of percent of control at 10^−7 M was from 40% to 60% or the value of IC50 was from 50 nM to 200 nM.). Regarding `COc1ccc(NC(=S)NC[C@H]2CC[C@@H](Nc3nc(N(C)C)c4ccccc4n3)CC2)c(C)c1` [compound 743], the class is listed as 2 (Class 2: The value of percent of control at 10^−7 M was from 40% to 60% or the value of IC50 was from 50 nM to 200 nM.). Take `CN(C)c1nc(N[C@H]2CC[C@@H](CNC(=S)Nc3ccccc3F)CC2)nc2ccccc12` [compound 642]: the class was 3 (Class 3: The value of percent of control at 10^−7 M was more than 60% or the value of IC50 was more than 200 nM.). `CN(C)c1nc(N[C@H]2CC[C@@H](NC(=S)Nc3cccc(Cl)c3Cl)CC2)nc2ccccc12` [compound 210]: the class is given as 3 (Class 3: The value of percent of control at 10^−7 M was more than 60% or the value of IC50 was more than 200 nM.).

In the case of `Cc1cc(NC(=S)NC[C@H]2CC[C@@H](Nc3nc(N(C)C)c4ccccc4n3)CC2)ccc1Br` [compound 736], the class was 3 (Class 3: The value of percent of control at 10^−7 M was more than 60% or the value of IC50 was more than 200 nM.).

As for `CN(C)c1nc(N[C@H]2CC[C@@H](CNC(=O)NC3CCCC3)CC2)nc2ccccc12` [compound 572, N-cyclopentyl-N′-[(cis-4-{[4-(dimethylamino)quinazolin-2-yl]amino}cyclohexyl)methyl]urea], the class is 2 (Class 2: The value of percent of control at 10^−7 M was from 40% to 60% or the value of IC50 was from 50 nM to 200 nM.). Same read-out and setting: for `Cc1ccc(Cl)cc1NC(=O)NC[C@H]1CC[C@@H](Nc2nc(N(C)C)c3ccccc3n2)CC1` [compound 565] the value was 2 (Class 2: The value of percent of control at 10^−7 M was from 40% to 60% or the value of IC50 was from 50 nM to 200 nM.); for `CN(C)c1nc(N[C@H]2CC[C@@H](NC(=O)Nc3ccc4c(c3)OCCO4)CC2)nc2ccccc12` [compound 338, N-(2,3-dihydro-1,4-benzodioxin-6-yl)-N′-(cis-4-{[4-(dimethylamino)quinazolin-2-yl]amino}cyclohexyl)urea], 1 (Class 1: The value of percent of control at 10^−7 M was less than 40% or the value of IC50 was less than 50 nM.). In the case of `CN(C)c1nc(N[C@H]2CC[C@@H](NC(=S)NCC3CC3)CC2)nc2ccccc12` [compound 379], the class is recorded as 3 (Class 3: The value of percent of control at 10^−7 M was more than 60% or the value of IC50 was more than 200 nM.). Take `CN(C)c1ccc(NC(=O)NC[C@H]2CC[C@@H](Nc3nc(N(C)C)c4ccccc4n3)CC2)cc1` [compound 772]: the class is reported as 3 (Class 3: The value of percent of control at 10^−7 M was more than 60% or the value of IC50 was more than 200 nM.). With `CN(C)c1nc(N[C@H]2CC[C@@H](CNC(=S)Nc3cc([N+](=O)[O-])ccc3Cl)CC2)nc2ccccc12` [compound 722], the class is given as 3 (Class 3: The value of percent of control at 10^−7 M was more than 60% or the value of IC50 was more than 200 nM.).

As for `COC(=O)[C@H](CCSC)NC(=O)NC[C@H]1CC[C@@H](Nc2nc(N(C)C)c3ccccc3n2)CC1` (relative stereo) [compound 442, methyl N-({[(cis-4-{[4-(dimethylamino)quinazolin-2-yl]amino}cyclohexyl)methyl]amino}carbonyl)methioninate], the class is 2 (Class 2: The value of percent of control at 10^−7 M was from 40% to 60% or the value of IC50 was from 50 nM to 200 nM.). Same read-out and setting: for `CN(C)c1nc(N[C@H]2CC[C@@H](CNC(=S)Nc3cc(Cl)cc(Cl)c3)CC2)nc2ccccc12` [compound 647] the value was 3 (Class 3: The value of percent of control at 10^−7 M was more than 60% or the value of IC50 was more than 200 nM.).

Still in this assay, the particulars now being: class by percent of control at 10^-7 M or by IC50; read-out: class.
Consider `COC(=O)[C@H](CCSC)NC(=O)N[C@H]1CC[C@@H](Nc2nc(N(C)C)c3ccccc3n2)CC1` (relative stereo) [compound 41, methyl N-{[(cis-4-{[4-(dimethylamino)quinazolin-2-yl]amino}cyclohexyl)amino]carbonyl}methioninate], for which the IC50 was < 50 nM. In the case of `CN(C)c1nc(N[C@H]2CC[C@@H](NC(=O)Oc3cccc(C(F)(F)F)c3)CC2)nc2ccccc12` [compound 849], the IC50 was > 200 nM.

As for `C=CCOC(=O)N[C@H]1CC[C@@H](Nc2nc(N(C)C)c3ccccc3n2)CC1` [compound 857], the IC50 was > 200 nM.

On to `CN(C)c1nc(N[C@H]2CC[C@@H](NC(=S)Nc3ccc(Br)cc3)CC2)nc2ccccc12` [compound 158, N-(4-bromophenyl)-N′-(cis-4-{[4-(dimethylamino)quinazolin-2-yl]amino}cyclohexyl)thiourea], for which the IC50 is < 50 nM.

Take `CN(C)c1nc(N[C@H]2CC[C@@H](NC(=O)Nc3ccc(F)cc3[N+](=O)[O-])CC2)nc2ccccc12` [compound 822, N-(cis-4-{[4-(dimethylamino)quinazolin-2-yl]amino}cyclohexyl)-N′-(4-fluoro-2-nitrophenyl)urea]: the IC50 fell in the range of 50 to 200 nM. For `CN(C)c1nc(N[C@H]2CC[C@@H](NC(=O)Nc3ccc(F)cc3)CC2)nc2ccccc12` [compound 36, N-(cis-4-{[4-(dimethylamino)quinazolin-2-yl]amino}cyclohexyl)-N′-(4-fluorophenyl)urea], the IC50 is < 50 nM. Take `CN(C)c1nc(N[C@H]2CC[C@@H](NC(=O)Nc3ccc(Br)cc3Cl)CC2)nc2ccccc12` [compound 143]: the IC50 is > 200 nM. On the same count and under the same terms, for `CCCCCCCCOC(=O)N[C@H]1CC[C@@H](Nc2nc(N(C)C)c3ccccc3n2)CC1` [compound 853] the value was > 200 nM.

Still in this assay, the particulars now being: class by percent of control at 10^−7 M or by IC50; read-out: class.
Turning to `CN(C)c1nc(N[C@H]2CC[C@@H](CNC(=O)c3cc(C(F)(F)F)ccc3C(F)(F)F)C2)nc2ccccc12` [Example 1126, N-[((1R,3S)-3-{[4-(dimethylamino)quinazolin-2-yl]amino}cyclopentyl)methyl]-2,5-bis(trifluoromethyl)benzamide], the IC50 was > 200 nM. On the same count and under the same terms, the value for `CN(C)c1nc(N[C@H]2CC[C@@H](CNC(=O)c3c(Cl)cc(Cl)cc3Cl)C2)nc2ccccc12` [Example 1123, 2,4,6-trichloro-N-[((1R,3S)-3-{[4-(dimethylamino)quinazolin-2-yl]amino}cyclopentyl)methyl]benzamide] was < 50 nM. For the molecule `CN(C)c1nc(N[C@H]2CC[C@@H](NC(=O)c3ccc(Oc4ccc(F)cc4)nc3)CC2)nc2ccccc12` [Example 1059, N-(cis-4-{[4-(dimethylamino)quinazolin-2-yl]amino}cyclohexyl)-6-(4-fluorophenoxy)nicotinamide], the IC50 was > 200 nM.

In the case of `CN(C)c1nc(N[C@H]2CC[C@@H](C(=O)NCc3ccc(Cl)c(Cl)c3)CC2)nc2ccccc12` [Example 1156, cis-N-(3,4-dichlorobenzyl)-4-{[4-(dimethylamino)quinazolin-2-yl]amino}cyclohexanecarboxamide], the IC50 was < 50 nM.

For `CN(C)c1nc(N[C@H]2CC[C@@H](CNC(=O)c3cc(F)cc(F)c3)C2)nc2ccccc12` [Example 1130, N-[((1R,3S)-3-{[4-(dimethylamino)quinazolin-2-yl]amino}cyclopentyl)methyl]-3,5-difluorobenzamide], the IC50 was < 50 nM. For the molecule `CN(C)c1nc(N[C@H]2CC[C@@H](NC(=O)c3cccnc3Oc3ccccc3OC(F)(F)F)CC2)nc2ccccc12` [Example 1033, N-(cis-4-{[4-(dimethylamino)quinazolin-2-yl]amino}cyclohexyl)-2-[2-(trifluoromethoxy)phenoxy]nicotinamide], the IC50 is < 50 nM. As for `CN(C)c1nc(N[C@H]2CC[C@@H](NC(=O)c3cccnc3Oc3cccc(OC(F)(F)F)c3)CC2)nc2ccccc12` [Example 1036, N-(cis-4-{[4-(dimethylamino)quinazolin-2-yl]amino}cyclohexyl)-2-[3-(trifluoromethoxy)phenoxy]nicotinamide], the IC50 was < 50 nM.
